In patent US10294202B2, “Pyrrolidinones as herbicides” (FMC Corporation, priority 2013, dated 2019):

Legend:
[1] = tested on: pigweed; assay: Test C pre-/postemergence herbicide test; type: in vivo, Amaranthus retroflexus
Summary of the method: (§1)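 Greenhouse pots; formulation = non-phytotoxic solvent mix + surfactant. PRE onto seeds in loam:sand; POST at 1–4 leaves (2–18 cm) in peat moss/vermiculite medium. Read-out: visual % control vs untreated, day 13–15.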

[2] = tested on: waterhemp; assay: Test C pre-/postemergence herbicide test; type: in vivo, Amaranthus rudis
Summary of the method: as §1

[3] = tested on: galium; assay: Test C pre-/postemergence herbicide test; type: in vivo, Galium aparine
Summary of the method: as §1

[4] = tested on: sedge, umbrella; assay: Test B flooded paddy test; type: in vivo, Cyperus difformis; details: Flood, scale of 0 to 100 where 0 is no effect and 100 is complete control
Summary of the method: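 Visual ratings from 0, meaning no effect, up to 100, meaning complete control, were made by comparison with untreated controls 13 to 15 days after treatment. Test compounds went straight into floodwater standing 3 cm over the soil of pots holding 2-leaf seedlings.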

[5] = tested on: wheat (winter wheat); assay: Test C pre-/postemergence herbicide test; type: in vivo, Triticum aestivum
Summary of the method: as §1

[6] = tested on: blackgrass; assay: Test C pre-/postemergence herbicide test; type: in vivo, Alopecurus myosuroides; details: for Blackgrass plant response rating: scale 0 to 100, 0 is no effect and 100 is complete control
Summary of the method: as §1

[7] = tested on: johnsongrass; assay: Test C pre-/postemergence herbicide test; type: in vivo, Sorghum halepense
Summary of the method: as §1

[8] = tested on: lambsquarters; assay: Test C pre-/postemergence herbicide test; type: in vivo, Chenopodium album
Summary of the method: as §1

[9] = tested on: crabgrass, large; assay: Test C pre-/postemergence herbicide test; type: in vivo, Digitaria sanguinalis
Summary of the method: as §1

[10] = tested on: morningglory; assay: Test C pre-/postemergence herbicide test; type: in vivo, Ipomoea coccinea
Summary of the method: as §1

[11] = tested on: wheat; assay: Test A pre-/postemergence herbicide test; type: in vivo, Triticum aestivum
Summary of the method: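 Greenhouse pot test with pre- and postemergence application of surfactant-containing solvent formulations. Postemergence plants were 2–10 cm, one- to two-leaf stage. Response scored visually after ~10 days, 0 (no effect) to 100 (complete control).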

[12] = Postemergence, 31 g ai/ha, scale 0 to 100 (0 no effect, 100 complete control)
[13] = Postemergence, 62 g ai/ha, scale 0 (no effect) to 100 (complete control)
[14] = Postemergence, 125 g ai/ha, scale 0 to 100 (0 no effect, 100 complete control)
[15] = Postemergence, 250 g ai/ha, scale 0 to 100 (0 no effect, 100 complete control)
[16] = Preemergence, 31 g ai/ha, scale 0 to 100, 0 is no effect and 100 is complete control
[17] = Preemergence, 62 g ai/ha, scale 0 to 100 (0 no effect, 100 complete control)
[18] = Preemergence, 125 g ai/ha, scale 0 to 100 (0 no effect, 100 complete control)
[19] = Preemergence, 62 g ai/ha, scale 0 to 100
[20] = Postemergence, 125 g ai/ha, 0 to 100 scale, 0 is no effect, 100 is complete control

O=C1NCC(c2ccc(C(F)(F)F)cc2)C1C(=O)Nc1ccc(F)c(F)c1F (stereo not drawn) [Compound 232]
35: Plant response rating, Crabgrass, Large [9, 13]
30: Plant response rating, Wheat [11, 20]
25: Plant response rating, Johnsongrass [7, 15] | Plant response rating, Crabgrass, Large [9, 12] | Plant response rating, Morningglory [10, 14]
20: Plant response rating, Johnsongrass [7, 13] | Plant response rating, Johnsongrass [7, 14] | Johnsongrass plant response rating [7, 17] | Plant response rating (scale of 0 to 100), Morningglory ([10]; Preemergence, 250 g ai/ha)
90: Waterhemp plant response rating [2, 17] | Plant response rating, Waterhemp [2, 18] | Plant response rating, Galium [3, 18] | Plant response rating (scale of 0 to 100), Galium ([3]; Preemergence, 250 g ai/ha) | Plant response rating, Lambsquarters [8, 18] | Plant response rating (scale of 0 to 100), Lambsquarters ([8]; Preemergence, 250 g ai/ha) | Crabgrass, Large plant response rating [9, 17] | Plant response rating, Crabgrass, Large [9, 18] | Plant response rating (scale of 0 to 100), Crabgrass, Large ([9]; Preemergence, 250 g ai/ha)
0: Plant response rating, Sedge, Umbrella ([4]; 500 g ai/ha) | Plant response rating, Wheat [5, 12] | Plant response rating, Wheat [5, 13] | Wheat plant response rating [5, 16] | Wheat plant response rating [5, 17] | Plant response rating, Wheat [5, 18] | Plant response rating, Blackgrass [6, 12] | Plant response rating, Blackgrass [6, 13] | Plant response rating, Blackgrass [6, 14] | Plant response rating, Blackgrass [6, 15] | Plant response rating, Johnsongrass [7, 12] | Johnsongrass plant response rating [7, 16] | Plant response rating, Morningglory [10, 13] | Morningglory plant response rating [10, 16]
80: Plant response rating, Pigweed [1, 12] | Plant response rating, Waterhemp [2, 14] | Plant response rating, Waterhemp [2, 15] | Plant response rating, Galium [3, 13] | Plant response rating, Galium [3, 14] | Plant response rating, Galium [3, 15] | Plant response rating, Lambsquarters [8, 12]
50: Wheat plant response rating (0 to 100 scale, 0 is no effect, 100 is complete control) ([11]; Postemergence, 500 g ai/ha)
70: Plant response rating, Blackgrass [6, 19] | Plant response rating, Blackgrass [6, 18] | Plant response rating (scale of 0 to 100), Johnsongrass ([7]; Preemergence, 250 g ai/ha)
75: Plant response rating, Waterhemp [2, 12] | Plant response rating, Waterhemp [2, 13] | Plant response rating, Galium [3, 12] | Lambsquarters plant response rating [8, 16] | Plant response rating, Crabgrass, Large [9, 15]
15: Plant response rating, Morningglory [10, 12] | Morningglory plant response rating [10, 17] | Plant response rating, Morningglory [10, 18]
95: Plant response rating (scale of 0 to 100), Pigweed ([1]; Preemergence, 250 g ai/ha) | Plant response rating (scale of 0 to 100), Waterhemp ([2]; Preemergence, 250 g ai/ha)
85: Plant response rating, Pigweed [1, 13] | Plant response rating, Pigweed [1, 14] | Plant response rating, Pigweed [1, 15] | Pigweed plant response rating [1, 16] | Pigweed plant response rating [1, 17] | Plant response rating, Pigweed [1, 18] | Waterhemp plant response rating [2, 16] | Galium plant response rating [3, 16] | Galium plant response rating [3, 17] | Plant response rating (scale of 0 to 100), Blackgrass ([6]; Preemergence, 250 g ai/ha) | Plant response rating, Lambsquarters [8, 13] | Plant response rating, Lambsquarters [8, 14] | Plant response rating, Lambsquarters [8, 15] | Lambsquarters plant response rating [8, 17] | Crabgrass, Large plant response rating [9, 16]
5: Plant response rating, Wheat [5, 14] | Plant response rating, Wheat [5, 15] | Plant response rating (scale of 0 to 100), Wheat ([5]; Preemergence, 250 g ai/ha)
60: Blackgrass plant response rating ([6]; Preemergence, 31 g ai/ha) | Plant response rating, Johnsongrass [7, 18] | Plant response rating, Crabgrass, Large [9, 14] | Plant response rating, Morningglory [10, 15]

O=C1NCC(c2ccc(C(F)(F)F)cc2)C1C(=O)Nc1ccccc1Cl (stereo not drawn) [Compound 233]
45: Plant response rating, Blackgrass [6, 19] | Plant response rating (scale of 0 to 100), Johnsongrass ([7]; Preemergence, 250 g ai/ha)
20: Plant response rating, Johnsongrass [7, 18] | Plant response rating, Morningglory [10, 18] | Plant response rating (scale of 0 to 100), Morningglory ([10]; Preemergence, 250 g ai/ha) | Wheat plant response rating (0 to 100 scale, 0 is no effect, 100 is complete control) ([11]; Postemergence, 500 g ai/ha)
90: Plant response rating, Galium [3, 18] | Plant response rating (scale of 0 to 100), Galium ([3]; Preemergence, 250 g ai/ha) | Plant response rating (scale of 0 to 100), Blackgrass ([6]; Preemergence, 250 g ai/ha) | Plant response rating (scale of 0 to 100), Lambsquarters ([8]; Preemergence, 250 g ai/ha) | Crabgrass, Large plant response rating [9, 16] | Crabgrass, Large plant response rating [9, 17] | Plant response rating, Crabgrass, Large [9, 18] | Plant response rating (scale of 0 to 100), Crabgrass, Large ([9]; Preemergence, 250 g ai/ha)
60: Plant response rating, Pigweed [1, 18] | Plant response rating, Blackgrass [6, 18]
85: Plant response rating, Waterhemp [2, 18] | Lambsquarters plant response rating [8, 16] | Lambsquarters plant response rating [8, 17]
30: Blackgrass plant response rating ([6]; Preemergence, 31 g ai/ha)
70: Plant response rating (scale of 0 to 100), Pigweed ([1]; Preemergence, 250 g ai/ha)
0: Galium plant response rating [3, 16] | Plant response rating, Sedge, Umbrella ([4]; 500 g ai/ha) | Wheat plant response rating [5, 16] | Wheat plant response rating [5, 17] | Plant response rating, Wheat [5, 18] | Plant response rating (scale of 0 to 100), Wheat ([5]; Preemergence, 250 g ai/ha) | Johnsongrass plant response rating [7, 16] | Johnsongrass plant response rating [7, 17] | Morningglory plant response rating [10, 16] | Morningglory plant response rating [10, 17] | Plant response rating, Wheat [11, 20]
50: Pigweed plant response rating [1, 16] | Pigweed plant response rating [1, 17]
80: Waterhemp plant response rating [2, 17] | Galium plant response rating [3, 17]
95: Waterhemp plant response rating [2, 16] | Plant response rating (scale of 0 to 100), Waterhemp ([2]; Preemergence, 250 g ai/ha) | Plant response rating, Lambsquarters [8, 18]

O=C1NCC(c2cccc(C(F)(F)F)c2)C1C(=O)Nc1cccc(F)c1F (stereo not drawn) [Compound 241]
0: Pigweed plant response rating [1, 16] | Pigweed plant response rating [1, 17] | Plant response rating, Sedge, Umbrella ([4]; 250 g ai/ha) | Wheat plant response rating [5, 16] | Lambsquarters plant response rating [8, 16] | Lambsquarters plant response rating [8, 17] | Morningglory plant response rating [10, 16] | Morningglory plant response rating [10, 17]
45: Plant response rating, Waterhemp [2, 18] | Wheat plant response rating [5, 17]
95: Crabgrass, Large plant response rating [9, 16] | Crabgrass, Large plant response rating [9, 17]
90: Plant response rating, Wheat [5, 18] | Plant response rating (scale of 0 to 100), Johnsongrass ([7]; Preemergence, 250 g ai/ha)
40: Waterhemp plant response rating [2, 17]
85: Plant response rating, Galium [3, 18] | Plant response rating (scale of 0 to 100), Galium ([3]; Preemergence, 250 g ai/ha) | Plant response rating (scale of 0 to 100), Blackgrass ([6]; Preemergence, 250 g ai/ha) | Johnsongrass plant response rating [7, 16] | Plant response rating, Johnsongrass [7, 18]
80: Galium plant response rating [3, 17] | Plant response rating (scale of 0 to 100), Wheat ([5]; Preemergence, 250 g ai/ha) | Plant response rating, Blackgrass [6, 18] | Johnsongrass plant response rating [7, 17]
50: Blackgrass plant response rating ([6]; Preemergence, 31 g ai/ha)
30: Plant response rating (scale of 0 to 100), Morningglory ([10]; Preemergence, 250 g ai/ha) | Plant response rating, Wheat [11, 20] | Plant response rating, Wheat ([11]; preemergence, 500 g ai/ha, 0 to 100 scale, 0 is no effect and 100 is complete control)
70: Plant response rating (scale of 0 to 100), Pigweed ([1]; Preemergence, 250 g ai/ha) | Plant response rating, Blackgrass [6, 19] | Plant response rating, Wheat ([11]; Postemergence, 500 g ai/ha, 0 to 100 scale (0 no effect, 100 complete control))
10: Plant response rating, Lambsquarters [8, 18] | Plant response rating, Morningglory [10, 18]
25: Plant response rating, Pigweed [1, 18] | Waterhemp plant response rating [2, 16]
100: Plant response rating (scale of 0 to 100), Lambsquarters ([8]; Preemergence, 250 g ai/ha) | Plant response rating (scale of 0 to 100), Crabgrass, Large ([9]; Preemergence, 250 g ai/ha)
60: Plant response rating (scale of 0 to 100), Waterhemp ([2]; Preemergence, 250 g ai/ha)
20: Galium plant response rating [3, 16] | Plant response rating, Sedge, Umbrella ([4]; 1000 g ai/ha) | Plant response rating, Wheat ([11]; Preemergence, 125 g ai/ha, 0 to 100 scale where 0 is no effect and 100 is complete control)
98: Plant response rating, Crabgrass, Large [9, 18]
